Assay results from US11465986B2, “Crystal form of c-MET inhibitor and salt form thereof and preparation method therefor” (FUJIAN AKEYLINK BIOTECHNOLOGY CO., LTD., priority 2018, dated 2022).
Values joined by “and” are separate entries in the source; they are usually repeats but may differ in a detail not shown here. Equal entries are not always repeated. “Also recorded” adds a separate entry of the source.

Legend:
[1] = tested on: human liver cancer MHCC97H cell xenograft tumor; assay: In vivo efficacy, MHCC97H subcutaneous xenograft tumor model; set-up: species or system BALB/c nude mice; conditions: for tumor volume (24th day): 24th day after administration, average value±SEM; for T/C / TGI: based on the tumor volume on the 24th day after administration
Procedure: MHCC97H cells were cultured in a single layer in-vitro. The culturing condition was RPMI1640 medium supplemented with 10% heat-inactivated fetal bovine serum, 1% penicillin-streptomycin double antibody under 37° C., 5% carbon dioxide. Digestion and passage treatment with trypsin-EDTA was done twice a week. When the cells were in the exponential growing phase, the cells were collected, counted and inoculated.
BALB/c nude mice, male. 6-8 weeks old, weighting 18-22 g.
0.2 mL of a cell suspension containing 5×10^6 MHCC97H was subcutaneously inoculated into the right back of each mouse. Drugs were administered by group after the average tumor volume reached approximately 172 mm^3.
Investigation of whether the tumor growth was inhibited, delayed or cured. The diameters of the tumor were measured twice a week using a vernier caliper. The formula for calculating the tumor volume is V=0.5a×b^2, and a and b represent the long and short diameters of the tumor respectively. The antitumor effect (TGI) of the compound was evaluated by T-C (days) and TIC (%).
Remark: a. average value±SEM; b. p value was calculated based on the tumor volume.

[2] = Liver microsome metabolism, human; assay type: in vitro ADME
[3] = Liver microsome metabolism, rat; assay type: in vitro ADME
[4] = Liver microsome metabolism, mouse; assay type: in vitro ADME
[5] = tested on: MHCC97-H cells; conditions: read-out: IC50 on MHCC97-H cells; background section; cited from earlier work
[6] = tested on: MHCC97-H cells
Procedure: The cell plates were incubated in a carbon dioxide incubator for 3 days.

[7] = Stability test of the crystal forms (HPLC impurity content); assay type: physicochemical; conditions: for Impurity content, relative retention time 0.93 / Impurity content, relative retention time 1.07 / Total impurities / Impurity content, relative retention time 0.99 / Impurity content, relative retention time 1.39 / Impurity content, relative retention time 1.48 / Impurity content, relative retention time 1.05 / Impurity content, relative retention time 1.43: form A
Procedure: The method for High Performance Liquid Chromatograph (HPLC) in the present disclosure
Instrument Model: Agilent 1200 High Performance Liquid Chromatograph
The analysis method is as follows: […]
About 10 mg of the crystal form B of the compound represented by formula (II) was weighted and placed under stability test conditions, and the samples were collected and analyzed after 5 days, 10 days, and 1 month.
About 10 mg of the crystal form C of the compound represented by formula (III) was weighted and placed under stability test conditions, and the samples were collected and analyzed after 5 days, 10 days, and 1 month respectively.

[8] = Hygroscopicity study (weight gain over saturated ammonium chloride solution, 25° C., 24 hours); assay type: physicochemical
Procedure: The hygroscopicity was evaluated using the scales in the following Table 4:
3 dry glass weighing bottles with stopper (outer diameter of 50 mm, height of 30 mm) were placed in a desiccator having saturated ammonium chloride solution placed at the bottom, the weighing bottles were left open, and the desiccator was covered with lid, placed in a thermostat setting at 25° C. overnight.
The weighing bottles were took out and accurately weighed, the weight data were noted as m11, m12 and m13 respectively.
An appropriate amount of the crystal form A of the compound represented by formula (I), was spread in the weighed weighing bottles (the thickness of the sample was about 1 mm), and then accurately weighed, the weight data were noted as m21, m22 and m23, respectively.
The open weighing bottles and the bottle stoppers were placed in a desiccator having saturated ammonium chloride solution placed at the bottom, and the desiccator was covered with a lid, placed in a thermostat setting at 25° C. for 24 hours.
After standing for 24 hours, the weighing bottles were closed with the stoppers, then accurately weighed, and the weight data were noted as m31, m32 and m33.
Hygroscopicity weight gain was calculated, the calculation formula was as follows: Percentage gain=100%×(m3−m2)/(m2−m1)

[9] = Solubility test in different solvents; assay type: physicochemical; conditions: 25° C.±2° C.
Procedure: 10 mg of the crystal form A of the compound represented by formula (I) was placed into a glass bottle, 1 mL of solvent was added thereto and the bottle was shaken vigorously for 30 seconds every 5 minutes at 25° C.±2° C., the dissolution was observed over 30 minutes. The corresponding data were recorded in the table.
For insoluble samples, another 1 mg of the crystal form A of the compound represented by formula (I) was placed into a glass bottle, an appropriate solvent was added thereto, and the bottle was shaken vigorously for 30 seconds every 5 minutes at 25° C.±2° C., the dissolution was observed over 30 minutes. The corresponding data were recorded in Table 10.

[10] = Stability test of the crystal forms (HPLC impurity content); assay type: physicochemical; conditions: form A, 5 days
[11] = liver microsomes, read-out: t1/2 by liver microsome metabolism
[12] = 40° C. Relative humidity 75%, 1 month
[13] = 40° C. Relative humidity 75%, 2 months
[14] = 40° C. Relative humidity 75%, 10 days
[15] = 60° C. Relative humidity 75%, 1 month
[16] = 60° C. Relative humidity 75%, 2 months
[17] = 60° C. Relative humidity 75%, 10 days
[18] = Light (total illuminance = 1.2 × 106 Lux · hr/near ultraviolet = 200 w · hr/m^2)
[19] = Relative humidity 92.5%, 5 days
[20] = Relative humidity 92.5%, 10 days

Structure (SMILES): CN1CCC(COc2cnc(-c3cccc(Cn4nc(-c5cccc(C#N)c5)ccc4=O)c3)nc2)CC1 [Tepotinib, reference compound]
- tumor volume (24th day) [1]: 255 ± 5 mm^3
- T/C [1]: 12.4%
- TGI [1]: 95.6%
- half-life [2, 11]: 48.3 min
- half-life [3, 11]: 10.5 min
- half-life [4, 11]: 12.4 min
- IC50 [5]: 6.2 nM

Structure (SMILES): C[C@H](c1cccc(-c2ncc(OCC3CCN(C)CC3)cn2)c1)n1cc(-c2cc(C#N)ccn2)cc(F)c1=O [compound represented by formula (I)]
- Inhibitory activity on MHCC97H cell, in words [6]: good inhibitory activity
- tumor volume (24th day) [1]: 153 ± 12 mm^3
- Tumor inhibitory effect compared with tepotinib, in words ([1]; MHCC97H liver cancer cell subcutaneous xenograft tumor model): better tumor inhibitory effect than tepotinib
- T/C [1]: 7.4%
- TGI [1]: 101.0%
- t1/2 by liver microsome metabolism [2]: 62.1 min
- t1/2 by liver microsome metabolism [3]: 36.5 min
- t1/2 by liver microsome metabolism [4]: 49.1 min

Structure (SMILES): C[C@H](c1cccc(-c2ncc(OCC3CCN(C)CC3)cn2)c1)n1cc(-c2cc(C#N)ccn2)cc(F)c1=O [crystal form A of the compound represented by formula (I)]
- Impurity content, relative retention time 0.93 ([7]; 0 day): 0.14%
- Impurity content, relative retention time 1.07 ([7]; 0 day): 0.52%
- Total impurities ([7]; 0 day): 0.67%
- Impurity content, relative retention time 0.93 [7, 12]: 0.12%
- Impurity content, relative retention time 1.07 [7, 12]: 0.45%
- Total impurities [7, 12]: 0.63%
- Impurity content, relative retention time 0.93 [7, 13]: 0.15%
- Impurity content, relative retention time 1.07 [7, 13]: 0.52%
- Total impurities [7, 13]: 0.66%
- Impurity content, relative retention time 0.93 [7, 14]: 0.14%
- Impurity content, relative retention time 1.07 [7, 14]: 0.5%
- Total impurities [7, 14]: 0.58%
- Impurity content, relative retention time 0.93 [7, 15]: 0.13%
- Impurity content, relative retention time 1.07 [7, 15]: 0.49%
- Total impurities [7, 15]: 0.62%
- Impurity content, relative retention time 0.93 [7, 16]: 0.17%
- Impurity content, relative retention time 1.07 [7, 16]: 0.59%
- Total impurities [7, 16]: 0.75%
- Impurity content, relative retention time 0.93 [7, 17]: 0.14%
- Impurity content, relative retention time 1.07 [7, 17]: 0.53%
- Total impurities [7, 17]: 0.67%
- Impurity content, relative retention time 0.93 ([7]; 60° C., 5 days): 0.12%
- Impurity content, relative retention time 0.99 ([7]; 60° C., 5 days): 0.13%
- Impurity content, relative retention time 1.07 ([7]; 60° C., 5 days): 0.47%
- Impurity content, relative retention time 1.39 ([7]; 60° C., 5 days): 0.17%
- Impurity content, relative retention time 1.48 ([7]; 60° C., 5 days): 0.1%
- Impurity content, relative retention time 0.93 ([7]; 60° C., 10 days): 0.12%
- Impurity content, relative retention time 0.99 ([7]; 60° C., 10 days): 0.19%
- Impurity content, relative retention time 1.05 ([7]; 60° C., 10 days): 0.14%
- Impurity content, relative retention time 1.07 ([7]; 60° C., 10 days): 0.45%
- Impurity content, relative retention time 1.39 ([7]; 60° C., 10 days): 0.41%
- Impurity content, relative retention time 1.43 ([7]; 60° C., 10 days): 0.11%
- Impurity content, relative retention time 1.48 ([7]; 60° C., 10 days): 0.23%
- Total impurities ([7]; 60° C., 10 days): 1.64%
- Impurity content, relative retention time 0.93 [7, 18]: 0.11%
- Impurity content, relative retention time 0.99 [7, 18]: 0.29%
- Impurity content, relative retention time 1.05 [7, 18]: 0.8%
- Impurity content, relative retention time 1.07 [7, 18]: 0.46%
- Impurity content, relative retention time 1.39 [7, 18]: 3.98%
- Impurity content, relative retention time 1.43 [7, 18]: 1.18%
- Impurity content, relative retention time 1.48 [7, 18]: 1.62%
- Total impurities [7, 18]: 13.45%
- Impurity content, relative retention time 0.93 [7, 19]: 0.14%
- Total impurities [7, 19]: 0.67%
- Impurity content, relative retention time 0.93 [7, 20]: 0.14%
- Impurity content, relative retention time 1.07 [7, 20]: 0.52%
- Total impurities [7, 20]: 0.67%
- Stability, conclusion in words ([7]; stress conditions (high temperature, high humidity, light)): good stability
- Average value of percentage gain (average hygroscopicity) ([8]; 25° C., 24 hours over saturated ammonium chloride solution, mean of 3 samples): 0.060%
- Percentage gain (hygroscopic weight gain), single samples ([8]; 25° C., 24 hours over saturated ammonium chloride solution, samples No. 1-3): 0.03% and 0.08% and 0.07%
- Hygroscopicity scale ([8]; classified by the average weight gain): no or almost no hygroscopicity
- Solubility classification ([9]; 0.1N HCl): Soluble
- Solubility classification ([9]; 0.1N NaOH): practically insoluble or insoluble; also recorded: Practically insoluble
- Solubility classification ([9]; Acetonitrile): Very slightly soluble
- Solubility classification ([9]; Diethylamine): practically insoluble or insoluble; also recorded: Practically insoluble
- Solubility classification ([9]; Ethanol): very slightly soluble
- Solubility classification ([9]; Ethyl acetate): Very slightly soluble
- Solubility classification ([9]; N-Methylpyrrolidone): Very soluble
- Solubility classification ([9]; Tetrahydrofuran): Sparingly soluble
- Solubility classification ([9]; Trifluoroacetic acid): Sparingly soluble
- Solubility classification ([9]; acetone): Slightly soluble
- Solubility classification ([9]; n-Hexane): practically insoluble or insoluble; also recorded: Practically insoluble
- Solubility classification ([9]; water): Very soluble
- Total impurities ([10]; 60° C.): 0.99%
- Impurity content, relative retention time 1.07 ([10]; Relative humidity 92.5%): 0.53%
